Test [1] deals with T1, CD19-CAR-dTAG (Homo sapiens, UniProt P62942+Q96SW2, F37V/H95N/M50V/V99I).
T1 construct: HA; expressed in transfected cells; host or cells: Jurkat T-cells (lentiviral transduction, blasticidin selection)
Briefly: Immunoblot of Jurkat T-cells expressing CD19-CAR-dTAG. The test is classed as cell-based. The conditions noted are these: for degradation of CD19-CAR-dTAG, time dependence: 250 nM, indicated time; for degradation of CD19-CAR-dTAG, dose dependence: indicated dose, 4 hours. How it is done: Jurkat T-cells were transduced with lentivirus expressing CD19-CAR-dTAG. Cells were selected with blasticidin and expanded. Stable expression of CD19-CAR-dTAG was confirmed.
Jurkat T-cells expressing CD19-CAR-dTAG were treated with the indicated dose of dFKBP7 or dFKBP13 for 4 hours.
FIG. 15A and FIG. 15B are immunoblots of cells treated with bi-functional molecules described in the present invention. Jurkat T-cells expressing CD19-CAR-dTAG were treated with 250 nM of dFKBP7 or dFKBP13 for the indicated time.
Jurkat T-cells expressing CD19-CAR-dTAG were treated with 250 nM of dFKBP7 for 4 hours. The dFKBP7 was then removed from the Jurkat cells via washouts and the re-expression of CD19-CAR-dTAG was monitored by immunoblot analysis at the indicated time points.
FIG. 17A illustrates the experimental design to measure the ability to control the expression CD19-CAR-dTAG in T-cells upon addition and removal of dFKBP7. Jurkat cells expressing CD19-CAR-dTAG were treated with 250 nM of dFKBP7 at the indicated time points (0 and 8 hours). At 4 and 12 hours, the dFKBP7 was washed out of the Jurkat cells. At each indicated timepoint, Jurkat cells were harvest to monitor CD19-CAR-dTAG expression levels via immunoblot analysis. FIG. 17B is the resulting immunoblot from the experimental design in FIG. 17A.
Jurkat T-cells were transduced with lentivirus expressing CD19-CAR-dTAG. Cells were selected with blasticidin and expanded. Stable expression of CD19-CAR-dTAG in Jurkat cells was confirmed by anti-HA western immunoblotting of whole cell lysates.
In an effort to define the optimal concentration of bifunctional molecules to induce degradation of CD19-CAR-dTAG, degradation was measured upon treatment with increasing concentrations of dFKBP7 and dFKBP13. Jurkat T-cells were engineered to express CD19-CAR-dTAG. Cells were treated with the indicated dose of dFKBP7 or dFKBP13 for 4 hours before lysates were prepared for western immunoblot analysis.
To evaluate the kinetic control of targeted degradation of CD19-CAR-dTAG, a fixed concentration of bi-functional molecules dFKBP7 and dFKBP13 were administered at a fixed concentration for increased duration. Jurkat T-cells were engineered to express CD19-CAR-dTAG. Cells were treated with 250 nM dFKBP7 or dFKBP13 for the indicated time before lysates were prepared for immunoblot analysis.
Immunoblot illustrating the kinetics of re-expression of the CD19-CAR-dTAG protein following targeting degradation with dFKBP7. Jurkat T-cells engineered to express CD19-CAR-dTAG were treated with 250 nM of dFKBP7 for 4 hours. The dFKBP7 was then removed from the Jurkat cells via washouts and the re-expression of CD19-CAR-dTAG was monitored by immunoblot analysis at the indicated time points.
FIG. 17A illustrates the experimental design to measure the ability to control the expression CD19-CAR-dTAG in T-cells upon addition and removal of dFKBP7. Jurkat cells engineered to express CD19-CAR-dTAG were treated with 250 nM of dFKBP7 at the indicated time points (0 and 8 hours). At 4 and 12 hours, the dFKBP7 was washed out of the Jurkat cells. At each indicated timepoint, Jurkat cells were harvest to monitor CD19-CAR-dTAG expression levels via immunoblot analysis.
FIG. 17B is an immunoblot illustrating the ability to toggle on and off expression of CD19-CAR-dTAG as described in FIG. 17A.
(In general: In western blotting, separated proteins are transferred to a membrane and probed.)

The test system of test [2] is indicated proteins fused to mutant FKBP*. Put plainly: Immunoblot of MV4;11 leukemia cells expressing proteins fused to mutant FKBP* with an HA tag. The settings on record: 16 hours, indicated concentrations.
From the text: Immunoblots of MV4; 11 leukemia cells expressing indicated proteins fused to mutant FKBP* with an HA tag.
To test the general utility of the dTAG technology across several protein types, the indicated proteins fused to the dTAG in MV4; 11 leukemia cells were expressed.
In test [3] the target is T2, FKBP* (Homo sapiens, UniProt P62942, F37V).
T2 construct: HA; expressed in transfected cells; host or cells: 293FT cells (CRBN-WT or CRBN-/-)
Put plainly: Immunoblot of 293FT cells (CRBN-WT or CRBN−/−) expressing HA-tagged FKBP*. The test is classed as cell-based. The settings on record: for degradation of FKBP*: 100 nM. The method, then: FIG. 6 is an immunoblot of cells treated with bi-functional molecules described in the present invention. 293FT cells (CRBN-WT or CRBN−/−) expressing either HA-tagged FKBP12WT or FKBP* (also referred to as dFKBP12* herein) were treated with indicated concentrations of dFKBP7 for 4 hours.
Isogenic 293FT cells (CRBN-WT or CRBN−/−) expressing either FKBP12WT or FKBP* were treated with 100 nM of either dFKBP7 or dFKBP13 for 4 hours.
Isogenic 293FT cells (CRBN-WT or CRBN−/−) expressing HA-tagged FKBP* were treated with the indicated dose of dFKBP13 for 4 hours.
293FT cells (CRBN-WT) expressing HA-tagged FKBP* were treated with 100 nM dFKBP13 for the indicated times. Cells were harvested and protein lysates immunoblotted to measure the kinetics of HA-tagged FKBP* degradation induced by dFKBP13.
The dTAG is predicated on the selectivity of FKBP* specific ligands over endogenous, wild type FKBP. In 293 T cells expressing wild type FKBP 12 or FKBP*, dFKBP7 induces targeted degradation only in FKBP* expressing cells. An immunoblot of cells treated with bi-functional molecules described in the present invention was performed. 293FT cells (CRBN-WT or CRBN−/−) expressing either HA-tagged FKBP12WT or FKBP* were treated with indicated concentrations of dFKBP7 for 4 hours.
In 293T cells expressing wild type FKBP12 or FKBP*, treatment with dFKBP7 and dFKBP13 induces targeted degradation only in FKBP* expressing cells. Isogenic 293FT cells (CRBN-WT or CRBN−/−) were engineered to express either FKBP12WT or FKBP*. Cells were treated with 100 nM of either dFKBP7 or dFKBP13 for 4 hours before lysates were prepared for western immunoblot analysis.
In an effort to define the optimal concentration of dFKB13 heterobifunctional compounds to induce degradation of FKBP*, degradation was measured upon treatment with increasing concentrations of dFKBP13. Isogenic 293FT cells (CRBN-WT or CRBN−/−) were engineered to expressed HA-tagged FKBP*. Cells were treated with the indicated dose of dFKBP13 for 4 hours before lysates were prepared for western immunoblot analysis.
To evaluate the kinetic control of targeted degradation FKBP*, dFKBP13 was administered by increased duration. 293FT cells (CRBN-WT) were engineered to express HA-tagged FKBP*. Cells were treated with 100 nM dFKBP13 for the indicated times. Cells were harvested and protein lysates immunoblotted to measure the kinetics of HA-tagged FKBP* degradation induced by dFKBP 13.

[4] abbreviates: isogenic 293FT CRBN-WT or CRBN−/−, 4 hours.

T2 sequence (P62942 whole entry F37V): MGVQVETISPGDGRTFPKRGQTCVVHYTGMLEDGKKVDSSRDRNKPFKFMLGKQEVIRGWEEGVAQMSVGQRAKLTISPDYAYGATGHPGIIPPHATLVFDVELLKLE
T1 sequence (P62942 with tags, fused parts or gaps F37V/M50V/H95N/V99I limits assumed): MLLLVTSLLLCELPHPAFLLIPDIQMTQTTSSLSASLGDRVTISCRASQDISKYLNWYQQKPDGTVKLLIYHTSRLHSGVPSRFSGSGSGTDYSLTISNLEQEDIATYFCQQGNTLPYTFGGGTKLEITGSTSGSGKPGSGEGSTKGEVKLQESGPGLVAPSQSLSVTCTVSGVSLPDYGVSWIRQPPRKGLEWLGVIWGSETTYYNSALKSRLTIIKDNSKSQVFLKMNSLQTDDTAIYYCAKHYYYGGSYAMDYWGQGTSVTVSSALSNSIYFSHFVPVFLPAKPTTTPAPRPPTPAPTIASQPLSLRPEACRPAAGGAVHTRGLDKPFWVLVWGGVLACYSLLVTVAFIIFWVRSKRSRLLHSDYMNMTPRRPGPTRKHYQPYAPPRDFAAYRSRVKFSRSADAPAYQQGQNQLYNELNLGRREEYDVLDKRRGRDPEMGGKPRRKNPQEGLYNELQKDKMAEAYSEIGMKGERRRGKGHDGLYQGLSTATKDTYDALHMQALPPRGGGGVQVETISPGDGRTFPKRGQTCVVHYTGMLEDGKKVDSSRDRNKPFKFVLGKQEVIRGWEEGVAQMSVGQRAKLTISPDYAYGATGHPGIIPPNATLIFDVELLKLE
T1 sequence (Q96SW2 whole entry): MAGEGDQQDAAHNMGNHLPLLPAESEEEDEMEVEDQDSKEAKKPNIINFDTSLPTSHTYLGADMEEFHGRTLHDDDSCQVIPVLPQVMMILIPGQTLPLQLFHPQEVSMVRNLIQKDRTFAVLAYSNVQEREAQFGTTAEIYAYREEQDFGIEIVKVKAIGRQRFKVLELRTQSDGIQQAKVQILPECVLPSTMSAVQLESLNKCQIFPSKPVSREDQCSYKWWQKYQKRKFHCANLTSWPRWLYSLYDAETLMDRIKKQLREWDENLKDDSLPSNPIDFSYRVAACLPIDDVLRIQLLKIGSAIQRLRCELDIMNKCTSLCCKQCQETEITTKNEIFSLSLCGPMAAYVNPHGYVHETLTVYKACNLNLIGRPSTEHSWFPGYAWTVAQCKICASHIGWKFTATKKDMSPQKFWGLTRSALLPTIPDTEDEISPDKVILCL
T1 sequence (Q16531 whole entry partner): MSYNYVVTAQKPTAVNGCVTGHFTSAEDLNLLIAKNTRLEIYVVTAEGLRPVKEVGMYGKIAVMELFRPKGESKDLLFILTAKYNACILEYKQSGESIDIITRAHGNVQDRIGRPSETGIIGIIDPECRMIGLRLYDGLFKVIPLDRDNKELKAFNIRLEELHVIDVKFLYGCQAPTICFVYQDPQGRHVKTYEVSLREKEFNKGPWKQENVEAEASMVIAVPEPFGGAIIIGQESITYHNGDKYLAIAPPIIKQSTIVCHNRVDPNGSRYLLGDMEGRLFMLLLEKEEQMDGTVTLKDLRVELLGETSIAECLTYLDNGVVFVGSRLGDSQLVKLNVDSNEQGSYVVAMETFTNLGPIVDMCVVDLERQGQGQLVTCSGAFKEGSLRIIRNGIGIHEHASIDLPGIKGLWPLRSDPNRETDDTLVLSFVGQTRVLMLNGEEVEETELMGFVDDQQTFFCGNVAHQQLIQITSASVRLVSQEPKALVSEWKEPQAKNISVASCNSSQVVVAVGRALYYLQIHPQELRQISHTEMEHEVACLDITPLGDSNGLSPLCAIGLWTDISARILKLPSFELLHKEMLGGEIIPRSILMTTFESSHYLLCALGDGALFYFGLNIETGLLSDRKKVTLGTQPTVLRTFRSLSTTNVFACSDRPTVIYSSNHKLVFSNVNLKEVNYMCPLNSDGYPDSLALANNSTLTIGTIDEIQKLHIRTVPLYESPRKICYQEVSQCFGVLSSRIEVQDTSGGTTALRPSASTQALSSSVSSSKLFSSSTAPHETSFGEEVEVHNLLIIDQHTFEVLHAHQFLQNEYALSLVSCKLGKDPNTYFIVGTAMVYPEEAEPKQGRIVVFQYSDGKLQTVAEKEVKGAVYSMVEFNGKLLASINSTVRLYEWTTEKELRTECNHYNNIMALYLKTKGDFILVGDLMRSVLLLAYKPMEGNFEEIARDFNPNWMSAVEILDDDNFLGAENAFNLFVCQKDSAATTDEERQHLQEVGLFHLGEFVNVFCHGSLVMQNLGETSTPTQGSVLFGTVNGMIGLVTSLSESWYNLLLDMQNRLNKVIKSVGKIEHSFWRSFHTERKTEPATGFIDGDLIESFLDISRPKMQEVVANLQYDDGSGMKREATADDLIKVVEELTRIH

`CC[C@H](C(=O)N1CCCC[C@H]1C(=O)O[C@H](CCc1ccc(OC)c(OC)c1)c1cccc(OCC(=O)NCCCOCCOCCOCCCNC(=O)COc2cccc3c2C(=O)N(C2CCC(=O)NC2=O)C3=O)c1)c1cc(OC)c(OC)c(OC)c1` (stereo partly drawn) [dFKBP7]: in test [1] (Jurkat T-cells, 250 nM dFKBP7 4 hours, then removed via washouts), the “re-expression of CD19-CAR-dTAG after washout” value is given as “protein levels recovered following removal”. In test [1] (Jurkat T-cells), the “degradation of CD19-CAR-dTAG, time dependence” value is reported as “time-dependent degradation” and the “degradation of CD19-CAR-dTAG, dose dependence” value is given as “dose-dependent degradation”. In addition, the “rheostat chemical control of CD19-CAR-dTAG expression” value in test [1] (Jurkat cells, 250 nM dFKBP7 at 0 and 8 hours, washed out at 4 and 12 hours) was “allows for exquisite chemical control of CD19-CAR-dTAG protein levels allowing for modulation within hours”. Also, in test [2], the “degradation of proteins fused to dTAG (FKBP*)” value was “degradation was observed with nanomolar concentrations”. Besides, the “degradation of HA-tagged FKBP*” value in test [3] (293FT CRBN-WT or CRBN−/−, indicated concentrations of dFKBP7, 4 hours) is given as “CRBN-dependent degradation of FKBP*”. The “degradation of FKBP*” value in test [3] (setting [4]) is given as “CRBN-dependent degradation of FKBP*”.
Take `CC[C@H](C(=O)N1CCCC[C@H]1C(=O)O[C@H](CCc1ccc(OC)c(OC)c1)c1cccc(OCC(=O)NCCCCCCOc2cccc3c2C(=O)N(C2CCC(=O)NC2=O)C3=O)c1)c1cc(OC)c(OC)c(OC)c1` (stereo partly drawn) [dFKBP13]: in test [1] (Jurkat T-cells), the “degradation of CD19-CAR-dTAG, time dependence” value is reported as “time-dependent degradation” and the “degradation of CD19-CAR-dTAG, dose dependence” value is given as “dose-dependent degradation”. The “degradation of proteins fused to dTAG (FKBP*)” value in test [2] is reported as “degradation was observed with nanomolar concentrations”. In test [3] (setting [4]), the “degradation of FKBP*” value was “CRBN-dependent degradation of FKBP*”. Also, the “degradation of HA-tagged FKBP*, dose dependence” value in test [3] (isogenic 293FT CRBN-WT or CRBN−/−, indicated dose, 4 hours) is “dose- and CRBN-dependent degradation”.

The values above are taken from patent US11046954B2, “Targeted protein degradation to attenuate adoptive T-cell therapy associated adverse inflammatory responses” (Dana-Farber Cancer Institute, Inc., priority 2015, dated 2021).
